Assay results reported in publication PMC6496074, “The Evolution of Azole Resistance in Candida albicans Sterol 14α-Demethylase (CYP51) through Incremental Amino Acid Substitutions” (Antimicrobial Agents and Chemotherapy, 2019).
Converted amounts (≈) assume the structure as drawn.

What was measured:
CaCYP51 Y132F+K143R = target: T1, CaCYP51 Y132F+K143R (Candida albicans, UniProt P10613, K143R/Y132F); test: CYP51 reconstitution assay; assay type: biochemical; details: for remaining activity at 4 µM: 0.25 h, read-out: Residual CYP51 activity (%) ± SD
T1 construct: made in house; host or cells: E. coli DH5α (pCWori+)
T1 sequence (P10613 whole entry, looked up, stated change not applied): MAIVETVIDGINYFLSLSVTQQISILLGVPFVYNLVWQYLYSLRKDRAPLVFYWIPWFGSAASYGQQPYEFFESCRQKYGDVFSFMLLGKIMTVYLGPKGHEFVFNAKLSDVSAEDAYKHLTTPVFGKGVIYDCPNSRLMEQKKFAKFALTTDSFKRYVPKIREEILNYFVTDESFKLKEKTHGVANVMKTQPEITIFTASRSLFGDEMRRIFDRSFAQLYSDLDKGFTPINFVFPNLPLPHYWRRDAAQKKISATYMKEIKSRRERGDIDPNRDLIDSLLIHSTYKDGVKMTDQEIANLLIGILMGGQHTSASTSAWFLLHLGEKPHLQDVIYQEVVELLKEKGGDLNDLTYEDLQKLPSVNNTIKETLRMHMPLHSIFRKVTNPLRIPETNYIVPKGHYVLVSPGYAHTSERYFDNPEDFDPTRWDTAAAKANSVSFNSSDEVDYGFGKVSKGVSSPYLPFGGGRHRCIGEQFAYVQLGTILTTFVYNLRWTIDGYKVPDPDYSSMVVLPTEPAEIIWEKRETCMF
Experimental: (§1) Azole antifungal agents were added in 2.5 μl dimethyl sulfoxide, followed by 10 min of incubation at 37°C prior to assay initiation with 4 mM β-NADPH-Na4. The samples were then shaken for 15 min at 37°C. Sterol metabolites were recovered by extraction with ethyl acetate, followed by derivatization with 0.1 ml N,O-bis(trimethylsilyl)trifluoroacetamide (BSTFA)–trimethylchlorosilane (TMCS) (99:1) and 0.3 ml anhydrous pyridine (2 h at 80°C), prior to analysis by gas chromatography-mass spectrometry (GC-MS) ([52]). IC50 determinations were performed in duplicate.

CaCYP51 Y132F+F145L = target: T2, CaCYP51 Y132F+F145L (Candida albicans, UniProt P10613, F145L/Y132F); test: CYP51 reconstitution assay; assay type: biochemical; details: for remaining activity at 4 µM: 0.25 h, read-out: Residual CYP51 activity (%) ± SD
T2 construct: made in house; host or cells: E. coli DH5α (pCWori+)
T2 sequence (P10613 whole entry, looked up, stated change not applied): as above
Experimental: as §1

[1] = system: C. albicans SC5314 strain with CaCYP51 substitution G448E; test: CLSI broth microdilution MIC; assay type: cell-based, Candida albicans; details: for MIC: Candida albicans, SC5314, RPMI 1640, 24 h, 35°C, 50% reduction in growth
From the text: (§2) Strains expressing seven single mutations (Y132F, K143R, F145L, S405F, G448E, G450E, G464S) and three double mutations (Y132F+K143R, Y132F+F145L, D278N+G464S) were selected from a previous study ([36]). Two additional strains expressing the Y132H and D278N CYP51 gene mutations were created utilizing the SAT1/FLP cassette described previously ([44]). […] Successful transformants were screened on yeast-peptone-dextrose agar plates containing nourseothricin and confirmed via Southern hybridization. Genomic DNA from nourseothricin-screened transformants was digested with the HindIII restriction enzyme, and the resulting DNA digests were loaded on 1% agarose gels containing ethidium bromide. Digested samples were visualized briefly under UV light after approximately 2 h of electrophoresis (120 V) to confirm appropriate band separation. Lanes containing digested DNA in the gel were transferred onto a nitrocellulose membrane via vacuum suction, and DNA was cross-linked to the membrane through UV exposure. PCR amplification of the genomic DNA from parent isolate SC5314 using primers ERG11_Probe_F (5′-[…]-3′) and ERG11_Probe_R (5′-[…]-3′) generated a 254-bp product, used as a probe for the ERG11 gene locus. The probe was labeled and prepared using an Amersham AlkPhos direct labeling and detection system (GE Life Sciences) and hybridized to the membrane through overnight incubation at 55°C. Bands containing the hybridized, alkaline phosphatase-labeled probe corresponding to either wild-type ERG11 alleles (2,678 bp) or successfully replaced alleles with the SAT1/FLP cassette included (4,318 bp) or recycled (3,119 bp) were visualized with the CDP-Star chemiluminescent detection reagent. To confirm the sequence of the replaced ERG11 allele, a DNA fragment containing the ERG11 ORF and approximately 435 bp upstream of the start codon and 229 bp downstream of the ERG11 stop codon was PCR amplified using primers CaERG11_A_(ApaI) (5′-[…]-3′) and CaERG11_E_(XhoI) (5′-[…]-3′). The resulting DNA fragment was purified and Sanger sequenced on an ABI model 3130XL genetic analyzer with the following sequencing primers: CaERG11SeqA (5′-[…]-3′), CaERG11SeqB (5′-[…]-3′), CaERG11SeqC (5′-[…]-3′), CaERG11SeqD (5′-[…]-3′), CaERG11SeqE (5′-[…]-3′), and CaERG11SeqF (5′-[…]-3′).
(§3) Azole MICs were determined using the broth microdilution method described by the Clinical Laboratory and Standards Institute ([45], [46]). […] Measurements were read visually at 24 h after incubation at 35°C for a 50% reduction in growth from that in the drug-free control wells. MIC measurements were performed in duplicate, and the MIC was reported as the higher of two values for all strains tested. In cases where the duplicate MIC values were not identical, the higher of the two MIC values is reported. […] Additionally, no MICs differed by more than 2 dilutions for a given strain and drug.

[2] = system: C. albicans SC5314 strain with CaCYP51 substitution D278N+G464S; test: CLSI broth microdilution MIC; assay type: cell-based, Candida albicans; details: for MIC: Candida albicans, SC5314, RPMI 1640, 24 h, 35°C, 50% reduction in growth
From the text: as §2, §3

[3] = system: C. albicans SC5314 strain with CaCYP51 substitution S405F; test: CLSI broth microdilution MIC; assay type: cell-based, Candida albicans; details: for MIC: Candida albicans, SC5314, RPMI 1640, 24 h, 35°C, 50% reduction in growth
From the text: as §2, §3

[4] = system: C. albicans SC5314 strain with CaCYP51 substitution F145L; test: CLSI broth microdilution MIC; assay type: cell-based; details: Candida albicans, RPMI 1640, 24 h, 35°C, 50% reduction in growth
From the text: as §2, §3

[5] = system: C. albicans SC5314 strain with CaCYP51 substitution Y132H; test: CLSI broth microdilution MIC; assay type: cell-based; details: Candida albicans, RPMI 1640, 24 h, 35°C, 50% reduction in growth
From the text: as §2, §3

[6] = system: C. albicans SC5314 strain with CaCYP51 substitution Y132F; test: CLSI broth microdilution MIC; assay type: cell-based; details: Candida albicans, RPMI 1640, 24 h, 35°C, 50% reduction in growth
From the text: as §2, §3

[7] = system: C. albicans SC5314 strain with CaCYP51 substitution Y132F+K143R; test: CLSI broth microdilution MIC; assay type: cell-based; details: Candida albicans, RPMI 1640, 24 h, 35°C, 50% reduction in growth
From the text: as §2, §3

[8] = system: C. albicans SC5314 strain with CaCYP51 substitution K143R; test: CLSI broth microdilution MIC; assay type: cell-based; details: Candida albicans, RPMI 1640, 24 h, 35°C, 50% reduction in growth
From the text: as §2, §3

[9] = system: C. albicans SC5314 strain with CaCYP51 substitution G464S; test: CLSI broth microdilution MIC; assay type: cell-based; details: Candida albicans, RPMI 1640, 24 h, 35°C, 50% reduction in growth
From the text: as §2, §3

CaCYP51 Y132H+K143R = target: T3, CaCYP51 Y132H+K143R (Candida albicans, UniProt P10613, K143R/Y132H); test: Azole ligand binding (type II difference spectra); details: for Kd: 4 μM protein, 22°C, ± standard deviation, triplicate, read-out: dissociation constant (Kd)
T3 construct: made in house; host or cells: E. coli DH5α (pCWori+)
T3 sequence (P10613 whole entry, looked up, stated change not applied): as above
Experimental: Studies of azole antifungal binding to 4 μM CaCYP51 proteins were performed as previously described ([53]) using quartz split cuvettes with a 4.5-mm light path. […] Azole antifungals were progressively titrated against the CaCYP51 proteins in 0.1 M Tris-HCl (pH 8.1) and 25% glycerol at 22°C, with equivalent volumes of dimethyl sulfoxide also being added to the CYP51-containing compartment of the reference cuvette. The absorbance difference spectra between 500 and 350 nm were determined after each incremental addition of azole, with binding saturation curves constructed from the change in the peak and trough absorbance (ΔApeak-trough) against the azole concentration. The dissociation constant (Kd) of the enzyme-azole complex for each azole was determined by nonlinear regression (Levenberg-Marquardt algorithm) using a rearrangement of the Morrison equation for tight ligand binding ([54], [55]). Tight binding is normally observed when the Kd for a ligand is similar to or lower than the concentration of the enzyme present ([56]). Where ligand binding was weak, the Michaelis-Menten equation was used to fit the data. Each binding determination was performed in triplicate. The chemical structures of the azole antifungals used in this study are shown in Fig. S5 in the supplemental material.

Q: Which results are given for CCC(C)n1ncn(-c2ccc(N3CCN(c4ccc(OCC5COC(Cn6cncn6)(c6ccc(Cl)cc6Cl)O5)cc4)CC3)cc2)c1=O (stereo not drawn) [Itraconazole, itraconazole]?
A: IC50 (CaCYP51 Y132F+K143R): 190 ± 2 nM; remaining activity at 4 µM (CaCYP51 Y132F+K143R): 0.23 ± 0.13%; IC50 (CaCYP51 Y132F+F145L): 364 ± 23 nM; remaining activity at 4 µM (CaCYP51 Y132F+F145L): 0.91 ± 0.05%; MIC [1]: 0.25 µg/mL (≈ 0.354 µM); MIC [2]: 0.25 µg/mL (≈ 0.354 µM); MIC [3]: 0.25 µg/mL (≈ 0.354 µM); MIC [4]: 0.25 µg/mL (≈ 0.354 µM); MIC [5]: 0.25 µg/mL (≈ 0.354 µM); MIC [6]: 0.25 µg/mL (≈ 0.354 µM); MIC [7]: 0.25 µg/mL (≈ 0.354 µM); MIC [8]: 0.5 µg/mL (≈ 0.709 µM); MIC [9]: 0.25 µg/mL (≈ 0.354 µM); Kd (CaCYP51 Y132H+K143R): 387 ± 117 nM

Q: Which IC50 (CaCYP51 Y132F+K143R) does the source give for OC(Cn1cncn1)(Cn1cncn1)c1ccc(F)cc1F [Fluconazole, fluconazole] here?
A: The IC50 was 5860 ± 524 nM.

Q: What about the remaining activity at 4 µM (CaCYP51 Y132F+K143R) of the same compound?
A: The remaining activity at 4 µM was 62 ± 1.21%.

Q: And the IC50 (CaCYP51 Y132F+F145L)?
A: The IC50 was 3890 ± 77 nM.

Q: What about the remaining activity at 4 µM (CaCYP51 Y132F+F145L) of the same compound?
A: The remaining activity at 4 µM was 49.1 ± 1.76%.

Q: What about the MIC [1] of the same compound?
A: The MIC was 8 µg/mL (≈ 26.1 µM).

Q: What about the “fold increase in MIC over SC5314” value [2] of the same compound?
A: Its value is “at least 2 fold”.

Q: What about the MIC [2] of the same compound?
A: Its MIC is 8 µg/mL (≈ 26.1 µM).

Q: And the “fold increase in MIC over SC5314” value [3]?
A: Its value is “at least 2 fold”.

Q: What about the MIC [3] of the same compound?
A: The MIC was 4 µg/mL (≈ 13.1 µM).

Q: And the MIC [4]?
A: The MIC was 4 µg/mL (≈ 13.1 µM).

Q: What about the MIC [5] of the same compound?
A: The MIC was 2 µg/mL (≈ 6.53 µM).

Q: And the MIC [6]?
A: The MIC was 8 µg/mL (≈ 26.1 µM).

Q: And the MIC [7]?
A: The MIC was 32 µg/mL (≈ 104 µM).

Q: And the MIC [8]?
A: The MIC was 16 µg/mL (≈ 52.2 µM).

Q: What about the MIC [9] of the same compound?
A: Its MIC is 8 µg/mL (≈ 26.1 µM).

Q: What about the “Kd, fold larger than wild-type enzyme” value (CaCYP51 Y132H+K143R) of the same compound?
A: Its value is 362 fold.

Q: What about the Kd (CaCYP51 Y132H+K143R) of the same compound?
A: Its Kd is 18100 nM.

Q: Which results are given for C[C@@H](c1ncncc1F)[C@](O)(Cn1cncn1)c1ccc(F)cc1F [Voriconazole, voriconazole]?
A: remaining activity at 4 µM (CaCYP51 Y132F+K143R): 8.86 ± 1.09%; remaining activity at 4 µM (CaCYP51 Y132F+F145L): 13.6 ± 0.19%; MIC [1]: 0.25 µg/mL (≈ 0.716 µM); MIC [2]: 0.25 µg/mL (≈ 0.716 µM); MIC [3]: 0.25 µg/mL (≈ 0.716 µM); MIC [4]: 0.5 µg/mL (≈ 1.43 µM); MIC [5]: 0.25 µg/mL (≈ 0.716 µM); MIC [6]: 0.5 µg/mL (≈ 1.43 µM); MIC [7]: 1 µg/mL (≈ 2.86 µM); MIC [8]: 0.5 µg/mL (≈ 1.43 µM); MIC [9]: 0.25 µg/mL (≈ 0.716 µM)

Q: Which IC50 (CaCYP51 Y132F+K143R) does the source give for CC[C@@H]([C@H](C)O)n1ncn(-c2ccc(N3CCN(c4ccc(OC[C@@H]5CO[C@@](Cn6cncn6)(c6ccc(F)cc6F)C5)cc4)CC3)cc2)c1=O [Posaconazole, posaconazole] here?
A: The IC50 was 246 ± 24 nM.

Q: And the remaining activity at 4 µM (CaCYP51 Y132F+K143R)?
A: Its remaining activity at 4 µM is 0.86 ± 0.11%.

Q: And the IC50 (CaCYP51 Y132F+F145L)?
A: Its IC50 is 433 ± 102 nM.

Q: And the remaining activity at 4 µM (CaCYP51 Y132F+F145L)?
A: Its remaining activity at 4 µM is 2.64 ± 0.08%.

Q: And the “fold increase in MIC over SC5314” value [1]?
A: The value was 2 fold.

Q: What about the MIC [1] of the same compound?
A: The MIC was 0.06 µg/mL (≈ 0.0856 µM).

Q: And the MIC [2]?
A: The MIC was ≤ 0.03 µg/mL.

Q: And the MIC [3]?
A: Its MIC is ≤ 0.03 µg/mL.

Q: And the MIC [4]?
A: The MIC was ≤ 0.03 µg/mL.

Q: What about the MIC [5] of the same compound?
A: Its MIC is ≤ 0.03 µg/mL.

Q: And the MIC [6]?
A: The MIC was ≤ 0.03 µg/mL.

Q: What about the MIC [7] of the same compound?
A: Its MIC is ≤ 0.03 µg/mL.

Q: What about the MIC [8] of the same compound?
A: The MIC was ≤ 0.03 µg/mL.

Q: What about the MIC [9] of the same compound?
A: Its MIC is ≤ 0.03 µg/mL.

Q: And the Kd (CaCYP51 Y132H+K143R)?
A: The Kd was 162 ± 59 nM.
